Results as given in paper PMC5501099 (Malaria Journal, 2017).

Experiments:
Plasmodium vivax = test: Effect of ivermectin on Plasmodium vivax sporogony in Anopheles dirus; type: in vivo; details: An. dirus; for P. vivax oocyst prevalence reduced by: dissected day 7
Experimental: Mosquitoes reared in Bangkok were transported to a field laboratory at the Mae Sot Malaria Medical Clinic in Mae Sot, Tak Province. Plasmodium vivax-infected blood was collected from malaria-infected patients reporting to malaria clinics operated by the Thailand Ministry of Public Health in Tak Province (protocol WRAIR#1949A). Patient plasma was removed and replaced by centrifuging blood samples at 3000 rpm for 5 min, plasma removed and blood washed with RPMI twice, and malaria-naïve AB+ serum was added at a 50:50 ratio [30]. One millilitre of blood was fed to each group of 100 mosquitoes in 0.5-l cardboard containers and unfed mosquitoes were removed. Mosquitoes were maintained on 10% sucrose ad libitum at the Mae Sot field insectary (25 ± 1 °C and 70 ± 10% relative humidity, light 12 h:12 h dark photoperiod). Once infected with P. vivax, blood-fed mosquitoes were securely transported back to Bangkok and maintained in a separate insectary (25 ± 1 °C and 70 ± 10% relative humidity, light 12 h:12 h dark photoperiod).
Unfed mosquitoes were removed from the feeding containers after each blood meal. Mosquitoes from the DPI 0 and DPI −3 feeding schedules were dissected 7 days post parasite ingestion to enumerate oocysts. Midguts were dissected with minuten pins into saline on a microscope slide and stained with 0.4% mercurochrome and viewed at 40× magnification with a compound microscope to determine oocyst prevalence and intensity. Approximately 25 mosquitoes were dissected from each control and treatment group at each dissection time point. Dissectors were blinded to treatment groups. Due to lack of initial mosquito blood feeding and mosquitoes lost to experimental mortality and oocyst dissections at day 7 post parasite feeding, not enough mosquitoes remained at day 14 post parasite feeding to determine sporozoite prevalence for the DPI −3 and 0 experiments. Mosquitoes from the DPI 6 and 9 experiments were dissected 14 days post parasite ingestion to determine sporozoite prevalence. Salivary glands were dissected with minuten pins into saline on a microscope slide and viewed at 40× magnification to determine sporozoite prevalence.
(§1) A non-linear mixed effects model with probit analysis was used to calculate LC50, LC25 and LC5 values with Statistical Analysis Software (SAS Institute Inc, Cary, NC, USA) as described previously. Hazard ratios for mosquito mortality at day 7 post blood meal were calculated using Poisson regression analysis with STATA version 12.1 (StataCorp LLC, College Station, TX, USA). Oocyst and sporozoite prevalence (i.e. proportion of infected mosquitoes) was compared by Fishers Exact test. Oocyst intensity (i.e. number of oocysts per infected mosquito) was compared by the Mann–Whitney U test. To determine if P. vivax infection altered mosquito survivorship post-ivermectin ingestion survival data were analysed by the Mantel–Cox method. The Fishers Exact, Mann–Whitney U, and survival analysis data were analysed with Prism 7 (GraphPad Software Inc, San Diego, CA, USA).

[1] = single dose of 800 µg/kg, literature parameters of American healthy volunteers; cited from earlier work
Anopheles campestris = test: Ivermectin lethal concentration / survivorship, membrane blood feeding; type: in vivo; details: An. campestris
Experimental: (§2) Powdered formulation of ivermectin compound was obtained from Sigma-Aldrich (St. Louis, USA). […] Control blood meals consisted of previously frozen DMSO diluted in PBS to match the ratio of DMSO and PBS fed to mosquitoes in the ivermectin-containing blood meals.
(§3) After blood feeding via a membrane feeder, unfed mosquitoes were removed and discarded. Blood-fed mosquitoes were held in 3.5-l plastic containers with access to 10% sucrose and kept in an incubator at 25 ± 1 °C and 70 ± 10% relative humidity, on a 12 h light:12 h dark photoperiod. Mosquito survivorship was monitored for 7 days, every 24 h dead mosquitoes were removed and recorded, and on day 7 all remaining mosquitoes were frozen and counted as alive.
as §1

Anopheles dirus = test: as above; type: in vivo; details: An. dirus
Experimental: as §2, §3, §1

Anopheles sawadwongporni = test: as above; type: in vivo; details: An. sawadwongporni
Experimental: as §2, §3, §1

Anopheles minimus = test: as above; type: in vivo; details: An. minimus
Experimental: as §2, §3, §1

[2] = ivermectin LC5 at DPI −3, not significant

With ivermectin the “P. vivax oocyst prevalence reduced by” value (Plasmodium vivax; ivermectin LC5 (22.1 ng/ml) co-ingested at DPI 0) was 33.6%, the “P. vivax mean oocyst intensity reduced by” value (Plasmodium vivax; ivermectin LC5 at DPI 0) was 24.7% and the “P. vivax oocyst intensity increased by” value (Plasmodium vivax; [2]) was 24.2%. The “P. vivax oocyst prevalence decreased by” value (Plasmodium vivax; [2]) was 3.9%, the “P. vivax oocyst prevalence reduced by” value (Plasmodium vivax; ivermectin LC25 (38.1 ng/ml) co-ingested at DPI 0) was 44.7% and the “P. vivax mean oocyst intensity reduced by” value (Plasmodium vivax; ivermectin LC25 at DPI 0) was 51.2%. For the same substance, the “P. vivax sporozoite prevalence decreased by” value (Plasmodium vivax; ivermectin LC25 at DPI 6, dissected day 14, not significant) was 4.5%, the “P. vivax sporozoite prevalence increased by” value (Plasmodium vivax; ivermectin LC25 at DPI 9, dissected day 14, not significant) was 4.4% and the “Simulated average peak concentration” value [1] was 108.1 ng/mL. It also gave an LC5 (Anopheles campestris; 7 days post blood meal) of 11.7 ng/mL, an LC25 (Anopheles campestris; 7 days post blood meal) of 0.0189 µg/mL and an LC50 (Anopheles campestris; 7 days post blood meal) of 0.0264 µg/mL. For the same substance, the “IRR (Incidence Rate Ratio of mortality at day 7, treatment group divided by control group)” value (Anopheles campestris; ivermectin imbibed 3 ng/ml) was 0.8, the “IRR (Incidence Rate Ratio of mortality at day 7, treatment group divided by control group)” value (Anopheles campestris; ivermectin imbibed 4 ng/ml) was 1.7 and the “IRR (Incidence Rate Ratio of mortality at day 7, treatment group divided by control group)” value (Anopheles campestris; ivermectin imbibed 5 ng/ml) was 1.4. The “IRR (Incidence Rate Ratio of mortality at day 7, treatment group divided by control group)” value (Anopheles campestris; ivermectin imbibed 6 ng/ml) was 1.0, the “IRR (Incidence Rate Ratio of mortality at day 7, treatment group divided by control group)” value (Anopheles campestris; ivermectin imbibed 8 ng/ml) was 1.2 and the “IRR (Incidence Rate Ratio of mortality at day 7, treatment group divided by control group)” value (Anopheles campestris; ivermectin imbibed 10 ng/ml) was 1.0. For the same substance, the “IRR (Incidence Rate Ratio of mortality at day 7, treatment group divided by control group)” value (Anopheles campestris; ivermectin imbibed 15 ng/ml) was 1.8, the “IRR (Incidence Rate Ratio of mortality at day 7, treatment group divided by control group)” value (Anopheles campestris; ivermectin imbibed 18 ng/ml) was 2.7 and the “IRR (Incidence Rate Ratio of mortality at day 7, treatment group divided by control group)” value (Anopheles campestris; ivermectin imbibed 20 ng/ml) was 2.5. For the same substance, the “IRR (Incidence Rate Ratio of mortality at day 7, treatment group divided by control group)” value (Anopheles campestris; ivermectin imbibed 22 ng/ml) was 3.4, the “IRR (Incidence Rate Ratio of mortality at day 7, treatment group divided by control group)” value (Anopheles campestris; ivermectin imbibed 25 ng/ml) was 3.4 and the “IRR (Incidence Rate Ratio of mortality at day 7, treatment group divided by control group)” value (Anopheles campestris; ivermectin imbibed 30 ng/ml) was 2.5. For the same substance, the “IRR (Incidence Rate Ratio of mortality at day 7, treatment group divided by control group)” value (Anopheles campestris; ivermectin imbibed 35 ng/ml) was 2.5, the “IRR (Incidence Rate Ratio of mortality at day 7, treatment group divided by control group)” value (Anopheles campestris; ivermectin imbibed 45 ng/ml) was 4.9 and the “IRR (Incidence Rate Ratio of mortality at day 7, treatment group divided by control group)” value (Anopheles campestris; ivermectin imbibed 50 ng/ml) was 5.3. It also gave an LC5 (Anopheles dirus; 7 days post blood meal) of 22.1 ng/mL, an LC25 (Anopheles dirus; 7 days post blood meal) of 0.0381 µg/mL and an LC50 (Anopheles dirus; 7 days post blood meal) of 0.0556 µg/mL. The “IRR (Incidence Rate Ratio of mortality at day 7, treatment group divided by control group)” value (Anopheles dirus; ivermectin imbibed 20 ng/ml) was 2.8, the “IRR (Incidence Rate Ratio of mortality at day 7, treatment group divided by control group)” value (Anopheles dirus; ivermectin imbibed 25 ng/ml) was 8.2 and the “IRR (Incidence Rate Ratio of mortality at day 7, treatment group divided by control group)” value (Anopheles dirus; ivermectin imbibed 30 ng/ml) was 4.7. The “IRR (Incidence Rate Ratio of mortality at day 7, treatment group divided by control group)” value (Anopheles dirus; ivermectin imbibed 35 ng/ml) was 24.4, the “IRR (Incidence Rate Ratio of mortality at day 7, treatment group divided by control group)” value (Anopheles dirus; ivermectin imbibed 40 ng/ml) was 19.1 and the “IRR (Incidence Rate Ratio of mortality at day 7, treatment group divided by control group)” value (Anopheles dirus; ivermectin imbibed 45 ng/ml) was 21.4. The “IRR (Incidence Rate Ratio of mortality at day 7, treatment group divided by control group)” value (Anopheles dirus; ivermectin imbibed 50 ng/ml) was 32.3, the “IRR (Incidence Rate Ratio of mortality at day 7, treatment group divided by control group)” value (Anopheles dirus; ivermectin imbibed 55 ng/ml) was 29.6 and the “IRR (Incidence Rate Ratio of mortality at day 7, treatment group divided by control group)” value (Anopheles dirus; ivermectin imbibed 60 ng/ml) was 36.1. For the same substance, the “IRR (Incidence Rate Ratio of mortality at day 7, treatment group divided by control group)” value (Anopheles dirus; ivermectin imbibed 65 ng/ml) was 44.5, the “IRR (Incidence Rate Ratio of mortality at day 7, treatment group divided by control group)” value (Anopheles dirus; ivermectin imbibed 70 ng/ml) was 42.5 and the “IRR (Incidence Rate Ratio of mortality at day 7, treatment group divided by control group)” value (Anopheles dirus; ivermectin imbibed 80 ng/ml) was 46.8. For the same substance, the “IRR (Incidence Rate Ratio of mortality at day 7, treatment group divided by control group)” value (Anopheles dirus; ivermectin imbibed 85 ng/ml) was 55.7, the “IRR (Incidence Rate Ratio of mortality at day 7, treatment group divided by control group)” value (Anopheles dirus; ivermectin imbibed 95 ng/ml) was 58.1 and the “IRR (Incidence Rate Ratio of mortality at day 7, treatment group divided by control group)” value (Anopheles dirus; ivermectin imbibed 100 ng/ml) was 64.3. The LC5 (Anopheles sawadwongporni; 7 days post blood meal) was 16.1 ng/mL, the LC25 (Anopheles sawadwongporni; 7 days post blood meal) was 0.0218 µg/mL and the LC50 (Anopheles sawadwongporni; 7 days post blood meal) was 0.0269 µg/mL. For the same substance, the “IRR (Incidence Rate Ratio of mortality at day 7, treatment group divided by control group)” value (Anopheles sawadwongporni; ivermectin imbibed 4 ng/ml) was 0.3, the “IRR (Incidence Rate Ratio of mortality at day 7, treatment group divided by control group)” value (Anopheles sawadwongporni; ivermectin imbibed 5 ng/ml) was 1.3 and the “IRR (Incidence Rate Ratio of mortality at day 7, treatment group divided by control group)” value (Anopheles sawadwongporni; ivermectin imbibed 6 ng/ml) was 0.3. For the same substance, the “IRR (Incidence Rate Ratio of mortality at day 7, treatment group divided by control group)” value (Anopheles sawadwongporni; ivermectin imbibed 8 ng/ml) was 0.6, the “IRR (Incidence Rate Ratio of mortality at day 7, treatment group divided by control group)” value (Anopheles sawadwongporni; ivermectin imbibed 10 ng/ml) was 1.1 and the “IRR (Incidence Rate Ratio of mortality at day 7, treatment group divided by control group)” value (Anopheles sawadwongporni; ivermectin imbibed 12 ng/ml) was 0.9. For the same substance, the “IRR (Incidence Rate Ratio of mortality at day 7, treatment group divided by control group)” value (Anopheles sawadwongporni; ivermectin imbibed 15 ng/ml) was 2.1, the “IRR (Incidence Rate Ratio of mortality at day 7, treatment group divided by control group)” value (Anopheles sawadwongporni; ivermectin imbibed 18 ng/ml) was 2.1 and the “IRR (Incidence Rate Ratio of mortality at day 7, treatment group divided by control group)” value (Anopheles sawadwongporni; ivermectin imbibed 20 ng/ml) was 2.7. For the same substance, the “IRR (Incidence Rate Ratio of mortality at day 7, treatment group divided by control group)” value (Anopheles sawadwongporni; ivermectin imbibed 22 ng/ml) was 2.3, the “IRR (Incidence Rate Ratio of mortality at day 7, treatment group divided by control group)” value (Anopheles sawadwongporni; ivermectin imbibed 25 ng/ml) was 5.3 and the “IRR (Incidence Rate Ratio of mortality at day 7, treatment group divided by control group)” value (Anopheles sawadwongporni; ivermectin imbibed 28 ng/ml) was 5.2. For the same substance, the “IRR (Incidence Rate Ratio of mortality at day 7, treatment group divided by control group)” value (Anopheles sawadwongporni; ivermectin imbibed 30 ng/ml) was 8.0, the “IRR (Incidence Rate Ratio of mortality at day 7, treatment group divided by control group)” value (Anopheles sawadwongporni; ivermectin imbibed 35 ng/ml) was 8.4 and the “IRR (Incidence Rate Ratio of mortality at day 7, treatment group divided by control group)” value (Anopheles sawadwongporni; ivermectin imbibed 40 ng/ml) was 9.4. It also gave an LC5 (Anopheles minimus; 7 days post blood meal) of 6.7 ng/mL, an LC25 (Anopheles minimus; 7 days post blood meal) of 0.0113 µg/mL and an LC50 (Anopheles minimus; 7 days post blood meal) of 0.0163 µg/mL. The “IRR (Incidence Rate Ratio of mortality at day 7, treatment group divided by control group)” value (Anopheles minimus; ivermectin imbibed 1 ng/ml) was 2.7, the “IRR (Incidence Rate Ratio of mortality at day 7, treatment group divided by control group)” value (Anopheles minimus; ivermectin imbibed 2 ng/ml) was 0.5 and the “IRR (Incidence Rate Ratio of mortality at day 7, treatment group divided by control group)” value (Anopheles minimus; ivermectin imbibed 3 ng/ml) was 1.8. For the same substance, the “IRR (Incidence Rate Ratio of mortality at day 7, treatment group divided by control group)” value (Anopheles minimus; ivermectin imbibed 4 ng/ml) was 2.9, the “IRR (Incidence Rate Ratio of mortality at day 7, treatment group divided by control group)” value (Anopheles minimus; ivermectin imbibed 5 ng/ml) was 3.6 and the “IRR (Incidence Rate Ratio of mortality at day 7, treatment group divided by control group)” value (Anopheles minimus; ivermectin imbibed 6 ng/ml) was 1.3. The “IRR (Incidence Rate Ratio of mortality at day 7, treatment group divided by control group)” value (Anopheles minimus; ivermectin imbibed 8 ng/ml) was 2.8, the “IRR (Incidence Rate Ratio of mortality at day 7, treatment group divided by control group)” value (Anopheles minimus; ivermectin imbibed 10 ng/ml) was 3.8 and the “IRR (Incidence Rate Ratio of mortality at day 7, treatment group divided by control group)” value (Anopheles minimus; ivermectin imbibed 12 ng/ml) was 4.6. The “IRR (Incidence Rate Ratio of mortality at day 7, treatment group divided by control group)” value (Anopheles minimus; ivermectin imbibed 15 ng/ml) was 5.8, the “IRR (Incidence Rate Ratio of mortality at day 7, treatment group divided by control group)” value (Anopheles minimus; ivermectin imbibed 18 ng/ml) was 7.0 and the “IRR (Incidence Rate Ratio of mortality at day 7, treatment group divided by control group)” value (Anopheles minimus; ivermectin imbibed 20 ng/ml) was 9.5. The “IRR (Incidence Rate Ratio of mortality at day 7, treatment group divided by control group)” value (Anopheles minimus; ivermectin imbibed 25 ng/ml) was 9.0, the “IRR (Incidence Rate Ratio of mortality at day 7, treatment group divided by control group)” value (Anopheles minimus; ivermectin imbibed 28 ng/ml) was 10.5 and the “IRR (Incidence Rate Ratio of mortality at day 7, treatment group divided by control group)” value (Anopheles minimus; ivermectin imbibed 30 ng/ml) was 11.5.
